Experimental data from patent publication US20260053935A1, “METHODS AND COMPOSITIONS FOR TREATING CANCER WITH CANCER-BINDING ADJUVANTS” (THE UNIVERSITY OF CHICAGO, priority 2022, published 2026).

Tests used:
[1] = test system: RAW 264.7 macrophages; test: Cytotoxicity to RAW 264.7 macrophages (Zombie Aqua viability dye); type: cell-based; settings: 24 hours after treatment; vs media alone
[2] = test system: C1498 cells; test: In vitro cancer cell binding of dye-labeled polymer to AML cells
Excerpt: Flow cytometric analysis of dye labeled PDS-containing polymers binding to C1498 cells in a (A) polymer dose-dependent manner.
They also investigated the effect of cytarabine pre-treatment on polymer binding, both in a dose and time dependent manner.

[3] = In vivo polymer biodistribution (tissue homogenate fluorescence); settings: cytarabine one day before polymer i.v.
Excerpt: To achieve this, they inoculated normal B6 mice with C1498. After one day, one group of mice received a dose of cytarabine. […] Eight hours after this injection, mice were sacrificed, and tissues were harvested for homogenization and subsequent fluorescence quantification using a microplate reader. Fluorescence values were normalized per mg of tissue.

[4] = test system: pro-inflammatory cytokines; test: Serum cytokine analysis in MC38 tumor-bearing mice; type: in vivo; settings: i.t. on a TLR7 equimolar basis; 6 hours after injection; vs PBS or vehicle control
Experimental: As a comparison, other mice were injected with TLR7/8 agonist telratolimod (3M-052, MedChemExpress, cat. no. HY-109104) in 10% DMSO, 40% PEG300 (Sigma Aldrich, cat. no. 8.07484), and 5% Tween-80 in PBS (Sigma Aldrich, cat. no. P8074) (with additional vehicle control mice). Six hours after injection, plasma was collected via submandibular bleed and analyzed for pro-inflammatory cytokines using LEGENDplex Mouse Inflammation Panel Assay (BioLegend, cat. no. 740446).

CCOCc1nc2c(N)nc3ccccc3c2n1CC(C)(C)O [R848]
live cells as a percent of total cells [1]: no significant change from the media alone control wells

Nc1ccn([C@@H]2O[C@H](CO)[C@@H](O)[C@@H]2O)c(=O)n1 [cytarabine]
efficiency of polymer binding to C1498 cells after cytarabine pre-treatment (duration) ([2]; cytarabine given too far from polymer treatment): decreases binding efficiency of PDS-containing polymers | efficiency of polymer binding to C1498 cells after cytarabine pre-treatment (dose) ([2]; cytarabine pre-treatment for 4 hours): increased the efficiency of polymer binding in a dose-dependent manner | effect of cytarabine pre-treatment on tissue biodistribution of polymer [3]: does not significantly alter the tissue biodistribution of polymer

CCCCCCCCCCCCCCCCCC(=O)NCCCCOn1c(CCCC)nc2c(N)nc3ccccc3c21 [3M-052]
systemic inflammatory cytokines (IFN-γ, IL-6, MCP-1, IFN-β, IL-27) [4]: produced significant upregulation
